Results reported in patent US11053281B2, “Peptoid affinity ligands” (MIKE-ANN, LLC, priority 2016, dated 2021).
Like-named read-outs stand apart in the source and are kept apart here. *1 amine or outer side, *2 acyl side, *3 side chain or, on linkers, in order; H or OH if unused. Where a SMILES comes first, the peptide text is derived from it. [ ]: non-standard residue; d: D form. Gly(N(CH2)2(3-indolyl)) = O=C(O)CNCCc1c[nH]c2ccccc12; N(2-mercaptoethyl)Gly = O=C(CN(CCS[*:3])[*:1])[*:2]; N(4-hydroxyphenethyl)Gly = O=C(O)CNCCc1ccc(O)cc1; Gly(N-(CH2)3-guanidino) = N=C(N)NCCCNCC(=O)O; NGly(CH2(3-pyridyl)) = O=C(O)CNCc1cccnc1; N(CH2CH2COOH)Gly = O=C(O)CCNCC(=O)O; Gly(N(CH2)3NH2) = NCCCNCC(=O)O; Cysteamide = C(CS[*:3])N[*:1]; X1 = CSCCN(CC(=O)[*:2])[*:1]; Nphe = O=C(O)CNCc1ccccc1; NPrGly = CCCNCC(=O)O; Nme = COCCNCC(=O)O; Sar = CNCC(=O)O

Tested on: polyclonal human IgG
Assay: Adsorption isotherm of peptoid affinity resins against polyclonal human IgG
Type: binding
Parameters: Qmax: unit not given here
Settings: for Qmax: maximum capacity (qmax) of resin from isotherm fit; for Kd: peptoid ligand conjugated to chromatographic resin, IgG in PBS, hyperbola fit of isotherm, Kd given in molar, read-out: Kd x 10^−6
Procedure: The affinity for the peptoid-resin combinations was determined by measuring the adsorption isotherm of each resin against polyclonal human IgG (Pakimna et al., J Applied Sci., 12(11): 1136-1141, 2012). Briefly, 0.050 mL of 50% resin slurry was pipetted into 6 individual wells of a 96-well filter plate (0.45 micron, PVDF, Harvard Apparatus). The resin was washed with 2×250 μL PBS using a vacuum manifold. To an individual well, 0.25 mL of a human polyclonal IgG solution at different concentrations (10, 5, 2.5, 1.25, 0.625, and 0.3125 mg/mL) was added. The resin/IgG suspension was agitated gently on a rocking table for 30 minutes. The fluid was then collected via vacuum, and the resin was washed with 0.25 mL of PBS. The filtrate and wash were then analyzed by the BCA assay to determine the residual IgG concentration relative to the starting concentration of the solution.
The equilibrium concentrations were then used to determine the capacity of the resin at each IgG concentration using the following formula: q=Volumesample×(Initial Concentration−Equilibrium Concentration)/Volumeresin
A plot of q versus equilibrium concentration was generated and the data fit with a hyperbola to determine the affinity constant (Kd) and the maximum capacity (qmax) according to the below formula, where C=the equilibrium concentration of antibody in solution: q=qmax×C/(kd+C) Typical adsorption isotherm is shown in FIG. 2. Tabulated Kd and qmax data is found in Table 2.

Row | Compound | Kd (Table 3) | Kd (Table 2) | Qmax (Table 3) | Qmax (Table 2)
1 | CCCN(CC(=O)N(CCc1c[nH]c2ccccc12)CC(=O)NCCS)C(=O)CN(CCc1c[nH]c2ccccc12)C(=O)CN(C)C(=O)CN(Cc1cccnc1)C(=O)CN(CCSC)C(=O)CNCc1cccnc1 [Ligand 16-64-2] (H-[NGly(CH2(3-pyridyl))][N(2-mercaptoethyl)Gly](Me)[NGly(CH2(3-pyridyl))][Sar][Gly(N(CH2)2(3-indolyl))][NPrGly][Gly(N(CH2)2(3-indolyl))]-Cysteamide) | 5.5 µM |  | 49 | 
2 | CSCCN(CC(=O)N(CCCN)CC(=O)N(CC(=O)N(CCC(=O)O)CC(=O)N(C)CC(=O)NCCS)Cc1cccnc1)C(=O)CN(Cc1ccccc1)C(=O)CNCc1cccnc1 [Ligand 16-64-4] (H-[NGly(CH2(3-pyridyl))][Nphe][X1][Gly(N(CH2)3NH2)][NGly(CH2(3-pyridyl))][N(CH2CH2COOH)Gly][Sar]-Cysteamide) | 28 µM |  | 33 | 
3 | COCCN(CC(=O)N(CCCN)CC(=O)N(CCc1c[nH]c2ccccc12)CC(=O)NCCS)C(=O)CNCc1cccnc1 [Ligand 16-81-6] (H-[NGly(CH2(3-pyridyl))][Nme][Gly(N(CH2)3NH2)][Gly(N(CH2)2(3-indolyl))]-Cysteamide) | 3.6 µM |  | 45 | 
4 | COCCN(CC(=O)N(CC(=O)NCCS)Cc1cccnc1)C(=O)CN(CCCN)C(=O)CNCCc1c[nH]c2ccccc12 [Ligand 16-81-7] (H-[Gly(N(CH2)2(3-indolyl))][Gly(N(CH2)3NH2)][Nme][NGly(CH2(3-pyridyl))]-Cysteamide) | 4.8 µM |  | 39 | 
5 | O=C(CN(CCc1c[nH]c2ccccc12)C(=O)CN(Cc1cccnc1)C(=O)CN(CCc1c[nH]c2ccccc12)C(=O)CNCc1cccnc1)NCCS [Ligand 16-82-2] | 2.5 µM |  | 41 | 
6 | CN(CC(=O)NCCS)C(=O)CN(CCC(=O)O)C(=O)CN(Cc1cccnc1)C(=O)CN(CCCNC(=N)N)C(=O)CN(CCCNC(=N)N)C(=O)CN(CCc1ccc(O)cc1)C(=O)CNCCc1ccc(O)cc1 [Ligand 18-28-1] (H-[N(4-hydroxyphenethyl)Gly][N(4-hydroxyphenethyl)Gly][Gly(N-(CH2)3-guanidino)][Gly(N-(CH2)3-guanidino)][NGly(CH2(3-pyridyl))][N(CH2CH2COOH)Gly][Sar]-Cysteamide) |  | 7.7 µM |  | 41
7 | CCCN(CC(=O)N(CCc1c[nH]c2ccccc12)CC(=O)NCCS)C(=O)CN(CCc1c[nH]c2ccccc12)C(=O)CN(C)C(=O)CN(Cc1cccnc1)C(=O)CN(CCc1c[nH]c2ccccc12)C(=O)CNCCCNC(=N)N [Ligand 18-28-6] (H-[Gly(N-(CH2)3-guanidino)][Gly(N(CH2)2(3-indolyl))][NGly(CH2(3-pyridyl))][Sar][Gly(N(CH2)2(3-indolyl))][NPrGly][Gly(N(CH2)2(3-indolyl))]-Cysteamide) |  | 2.6 µM |  | 42
8 | CCCN(CC(=O)N(CCc1c[nH]c2ccccc12)CC(=O)NCCS)C(=O)CN(CCc1c[nH]c2ccccc12)C(=O)CN(C)C(=O)CN(CCCNC(=N)N)C(=O)CN(CCc1c[nH]c2ccccc12)C(=O)CNCCC(=O)O [Ligand 18-28-7] (H-[N(CH2CH2COOH)Gly][Gly(N(CH2)2(3-indolyl))][Gly(N-(CH2)3-guanidino)][Sar][Gly(N(CH2)2(3-indolyl))][NPrGly][Gly(N(CH2)2(3-indolyl))]-Cysteamide) | 5.6 µM |  | 42 | 
9 | COCCN(CC(=O)N(CC(=O)N(CCCNC(=N)N)CC(=O)N(CC(=O)N(CCC(=O)O)CC(=O)N(C)CC(=O)NCCS)Cc1cccnc1)Cc1ccccc1)C(=O)CNCc1cccnc1 [Ligand 18-28-12] (H-[NGly(CH2(3-pyridyl))][Nme][Nphe][Gly(N-(CH2)3-guanidino)][NGly(CH2(3-pyridyl))][N(CH2CH2COOH)Gly][Sar]-Cysteamide) |  | 16 µM |  | 41

Now from value to molecule, other results behind:

Row | Kd (Table 3) | Kd (Table 2) | Compound | Qmax (Table 3) | Qmax (Table 2)
10 | 18 µM |  | CCCN(CC(=O)N(CCCN)CC(=O)N(CC(=O)N(CCC(=O)O)CC(=O)N(C)CC(=O)NCCS)Cc1cccnc1)C(=O)CN(CCC(=O)O)C(=O)CNCc1cccnc1 [Ligand 16-75-1] (H-[NGly(CH2(3-pyridyl))][N(CH2CH2COOH)Gly][NPrGly][Gly(N(CH2)3NH2)][NGly(CH2(3-pyridyl))][N(CH2CH2COOH)Gly][Sar]-Cysteamide) | 33 | 
11 |  | 4.3 µM | NC(=O)NCCCN(CC(=O)N(CCc1c[nH]c2ccccc12)CC(=O)N(CC(=O)NCCS)Cc1cccnc1)C(=O)CNCCc1c[nH]c2ccccc12 [Ligand 16-75-5] |  | 44
12 |  | 3.6 µM | NC(=O)NCCCN(CC(=O)N(CCc1c[nH]c2ccccc12)CC(=O)NCCS)C(=O)CN(CCc1c[nH]c2ccccc12)C(=O)CNCc1cccnc1 [Ligand 16-77-1] |  | 61
13 |  | 4 µM | COCCN(CC(=O)NCCS)C(=O)CN(CCc1c[nH]c2ccccc12)C(=O)CN(CCc1c[nH]c2ccccc12)C(=O)CNCCCN [Ligand 16-77-3] (H-[Gly(N(CH2)3NH2)][Gly(N(CH2)2(3-indolyl))][Gly(N(CH2)2(3-indolyl))][Nme]-Cysteamide) |  | 47
14 |  | 4.3 µM | COCCNCC(=O)N(CCc1c[nH]c2ccccc12)CC(=O)N(CCc1c[nH]c2ccccc12)CC(=O)N(CCCN)CC(=O)NCCS [Ligand 16-77-4] (H-[Nme][Gly(N(CH2)2(3-indolyl))][Gly(N(CH2)2(3-indolyl))][Gly(N(CH2)3NH2)]-Cysteamide) |  | 44
15 |  | 2.5 µM | NCCCNCC(=O)N(CC(=O)N(CCc1c[nH]c2ccccc12)CC(=O)N(CCc1c[nH]c2ccccc12)CC(=O)NCCS)Cc1cccnc1 [Ligand 16-82-3] (H-[Gly(N(CH2)3NH2)][NGly(CH2(3-pyridyl))][Gly(N(CH2)2(3-indolyl))][Gly(N(CH2)2(3-indolyl))]-Cysteamide) |  | 47
16 |  | 10 µM | CN(CC(=O)NCCS)C(=O)CN(CCC(=O)O)C(=O)CN(Cc1cccnc1)C(=O)CN(CCCNC(=N)N)C(=O)CN(CCC(=O)O)C(=O)CN(CCc1c[nH]c2ccccc12)C(=O)CNCc1cccnc1 [Ligand 18-28-9] (H-[NGly(CH2(3-pyridyl))][Gly(N(CH2)2(3-indolyl))][N(CH2CH2COOH)Gly][Gly(N-(CH2)3-guanidino)][NGly(CH2(3-pyridyl))][N(CH2CH2COOH)Gly][Sar]-Cysteamide) |  | 41
